Values of other authors in patent US6770262B2, “Nasal administration of agents for the treatment of gastroparesis” (priority 2000, dated 2004).
Read-outs that look alike come from different tables or passages of the source.

Settings: for onset of action: injection form

CCN(CC)CCNC(=O)c1cc(Cl)c(N)cc1OC [Metoclopramide]
time of peak plasma concentrations (after a single oral dose): 1 to 2 h
onset of action (intramuscular administration): 10 to 15 min
onset of action (intravenous administration): 1 to 3 min
